Tests used:
Hepa 1-6 tumors = Hepa 1-6 tumors in mice; type: in vivo, mouse; settings: Hepa 1-6 in C57BL6/J mice treated with anti-CD3; i.p., 20 mg/kg every day
Experimental: FIGS. 28A-28G: C99 inhibits murine RALDH1 and suppresses murine HCC growth. FIG. 28A: AldeRed assay was performed on Hepa1-6 (murine HCC, left graph) and SNU398 (human HCC, right graph) cells with or without different concentration of C99 (x-axis). Shown is the percentage of AldeRed-positive cells (y-axis) after 24 hours exposure to C99. Murine RALDH1 is sensitive to C99. FIG. 28B: Hepa1-6 cells were treated with different concentrations of C99 in vitro and the number of viable cells were counted at different time points. […] FIG. 28C: C57BL6/J mice were implanted subcutaneously with Hepa1-6 cells and the tumor-bearing mice. To prevent spontaneous rejection of this cell line, mice were treated with anti-CD3. Once the tumors reached around 50 mm^3 size, mice were treated with C86 or C99 (i.p., 20 mg/kg) every day. […] C99, but not C86, suppresses murine HCC growth. Two independent experiments were performed with at least three replicates per experimental group. Unpaired t test, two-tailed. FIG. 28D: Tumors in (FIG. 28C) were harvested at endpoint, single-cell suspension generated, and AldeRed assay was performed along with surface staining with immune cell markers. Shown is the percentage of AldeRed-positive cells in nonleukocytes (CD45 negative, mostly tumor cells) under the different treatment conditions. Two independent experiments were performed with at least three replicates per experimental group. Unpaired t test, two-tailed. FIG. 28E: FCS base frequency of Macrophages (F4/80^+ cells) within CD45^+ leukocytes in tumor tissues from experiment outlined in (FIGS. 28C-28D). Two independent experiments were performed with at least three replicates per experimental group. Unpaired t test, two-tailed. FIG. 28F: Hepa1-6 tumor-bearing NU/J mice were treated with chlodronate liposomes (CloLipo) and/or C86/C99. CloLipo treatment suppresses tumor growth and renders tumors insensitive to C99. Two independent experiments were performed with at least three replicates per experimental group. Unpaired t test, two-tailed. FIG. 28G: The murine fibrosarcoma (FS) cell line was implanted subcutaneously into C57BL6/J mice. Mice were treated with 25 mg/kg of C-99 or vehicle everyday starting one day after tumor cell transplantation. *, P<0.05; **, P<0.01; ***, P<0.001; ns, not significant.
Cultured Huh7, Huh1, Hepa 1-6, Hep55, and FS (as indicated in figure legends) tumor cells were detached using 0.25% trypsin (Gibco, catalog #25200056), washed once with 1×PBS, and counted before implantation. 3~6×10^6 tumor cells were implanted subcutaneously (s.c.) into shaved flanks of recipient mice. Tumor dimensions were measured using a caliper starting at the day indicated in the accompanying figure legend and every two to three days thereafter; volume was calculated by using formula Length*Width^2/2. Tumor volumes of 2,000 mm^3, tumor length of 2 cm or tumor ulceration were used as endpoints for survival analyses.
To deplete T cells, 200 μg of mouse CD3-specific antibody (clone 17A2) was administered i.p. starting three days before tumor implantation and repeated every three to four days until mouse sacrifice. To deplete macrophages, 200 μL of clodronate liposome (CloLipo) or PBS-liposome (CtrlLipo) (both Liposoma) was administered i.p. starting three days prior to tumor implantation and repeated every four days until mouse sacrifice. Macrophage depletion efficacy in spleen and within tumors was confirmed by flow cytometry using canonical macrophage marker F4/80. […]

SNU398 cells = assay: RT-qPCR of Raldh1, Raldh2 and Raldh3 transcripts in SNU398 cells; type: cell-based, human; settings: SNU398, 24 hours
Experimental: FIG. 21A: Transcript levels (RT-qPCR) of Raldh1, Raldh2 and Raldh3 in SNU398 cells treated with different concentrations of C86 or C91 for 24 hours. FIG. 21B: Homology modeling identifies differences in amino acid residues between human and murine RALDH1 at sites predicted to bind RALDH1-INH. FIG. 21C: SNU398 cells were treated with various concentrations of C86 or C91 for 24 hours. Cell viability was measured by flow cytometry (FCM) with 7-AAD staining (Y-axis indicates percentage of 7-AAD negative cells).
Total RNA from mouse tissue samples and in vitro cultured cells was isolated using GenElute Mammalian Total RNA Miniprep Kit (Sigma) following the manufacturer's protocol. Total RNA from human FFPE samples was isolated by using Quick-RNA FFPE Miniprep Kit (Zymo Research) using the manufacturer's protocol. 1000 ng of RNA was used for reverse transcription using High Capacity RNA to cDNA Kit (Life Technologies). The cDNA product was 10× diluted. 2.5 μL of this cDNA was used for qPCR for each sample. Three or more replicates were used for each reaction. […] Expression fold was calculated as 2^−(CT target gene−CT housekeeping gene). Quantitative PCRs were run on a Viia 7 real time PCR system (ThermoFisher). The following target and housekeeping genes were measured using the commercially available TaqMan probes (ThermoFisher): […]

[1] = Chow PK of C86, 15-day study in CD-1 mice; type: in vivo, mouse; settings: 15-day period
Experimental: FIG. 31A: Completed blood count (CBC) was performed at IDEXX on whole blood collected from indicated RALDH1 genotypes (X-axis). One experiment with four replicates per experimental group. One-way ANOVA. *p<0.05, **p<0.01, ***p<0.001. FIG. 31B: Weights of mice of the indicated RALDH1 genotypes. Siblings were used for all genotypes to control for confounding factors. One experiment with four replicates per experimental group. One-way ANOVA. *p<0.05, **p<0.01, ***p<0.001. […] Diet (or PO) #A, B, and C (shown in the inbox of individual graphs) corresponds to drug dose of 10, 30, and 60 mg/kg respectively. Mice had free access to food and water during the 15-day study.
The PK studies were done at NIH or a commercial CRO—Pharmacon using their in-house standard protocol. […] For C99, IV and PO, performed at NIH using CD-1 mice; formulation: 20% HPbCD in saline.

Chemokine CXCR2 (IL-8RB) = molecular target: T1, Chemokine CXCR2 (IL-8RB) (Homo sapiens, UniProt P25025); assay: Safetyscreen: CXCR2; type: binding; settings: read-out: % Inh. Chemokine CXCR2 (IL-8RB)
T1 construct: purchased Eurofins Cereps Panlabs

[2] = test system: Glutamate, NMDA, Polyamine; assay: Safetyscreen: NMDA, Polyamine; type: binding, rat; settings: 10 μM
[3] = molecular target: T2, Serotonin (5-Hydroxytryptamine) 5-HT2C (Homo sapiens, UniProt P28335); assay: Safetyscreen: 5-HT2C; type: binding; settings: read-out: % Inh. Serotonin (5-Hydroxytryptamine) 5-HT2C
T2 construct: Eurofins Cereps Panlabs (contract panel)
T2 sequence (P28335 33-458): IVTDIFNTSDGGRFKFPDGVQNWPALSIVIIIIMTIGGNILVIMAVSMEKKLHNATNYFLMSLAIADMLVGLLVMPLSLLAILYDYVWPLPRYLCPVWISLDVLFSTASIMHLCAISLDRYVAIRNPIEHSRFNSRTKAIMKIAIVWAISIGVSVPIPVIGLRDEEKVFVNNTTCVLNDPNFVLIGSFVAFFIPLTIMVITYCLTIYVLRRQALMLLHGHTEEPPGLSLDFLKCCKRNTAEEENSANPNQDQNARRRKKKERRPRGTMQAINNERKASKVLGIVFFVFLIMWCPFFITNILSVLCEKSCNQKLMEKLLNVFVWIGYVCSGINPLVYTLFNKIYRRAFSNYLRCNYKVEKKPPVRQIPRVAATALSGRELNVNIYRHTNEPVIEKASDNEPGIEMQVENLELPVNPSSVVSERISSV

T1 sequence (P25025 whole entry): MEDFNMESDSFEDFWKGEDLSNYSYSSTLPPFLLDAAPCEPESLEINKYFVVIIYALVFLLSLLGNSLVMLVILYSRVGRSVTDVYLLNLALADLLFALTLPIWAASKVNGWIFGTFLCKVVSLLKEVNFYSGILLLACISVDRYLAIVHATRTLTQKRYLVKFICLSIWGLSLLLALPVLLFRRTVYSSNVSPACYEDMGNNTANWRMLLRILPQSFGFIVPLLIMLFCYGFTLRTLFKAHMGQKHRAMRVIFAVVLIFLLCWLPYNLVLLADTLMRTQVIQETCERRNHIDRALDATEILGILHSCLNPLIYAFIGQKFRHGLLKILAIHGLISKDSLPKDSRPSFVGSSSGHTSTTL

With `CS(=O)(=O)N1CCN(C(=O)c2cnc3ccc(F)cc3c2N2CCC(C#N)(c3ccccc3)CC2)CC1` [Compound C-86, 1-(6-fluoro-3-(4-(methylsulfonyl)piperazine-1-carbonyl)quinolin-4-yl)-4-phenylpiperidine-4-carbonitrile] the “tumor growth in vivo” value (Hepa 1-6 tumors) was “did not suppress”, the “transcription of other RALDH isozymes” value (SNU398 cells) was “did not lead to compensatory increases in transcription” and the “drug exposure over time” value ([1]; chow, 10, 30 and 60 mg/kg) was “consistent drug exposure over time”. The body weight ([1]; chow) was “without affecting body weight”, the inhibition at 10 µM (Chemokine CXCR2 (IL-8RB)) was 8% and the “% Inh. Glutamate, NMDA, Polyamine” value [2] was 1%. It also gave an inhibition at 10 µM [3] of 22%.
